Results as given in ChEMBL document CHEMBL5223102, “CDK9 inhibitors in cancer research” (RSC Med Chem, 2022).
pIC50: −log10 of the molar value. Each block holds one molecule with its values, some of them ahead of it.

Columns and labels:
[1] = molecular target: T1, Cyclin-dependent kinase 2 (Homo sapiens, UniProt P24941)
[2] = molecular target: T2, Cyclin-dependent kinase 9 (Homo sapiens, UniProt P50750)
[3] = molecular target: T3, Cyclin-dependent kinase 2/cyclin A (Homo sapiens, UniProt P24941); test: Inhibition of CDK2/cyclin A (unknown origin) assessed as substrate phosphorylation using ULight MBP peptide as substrate in presence of ATP incubated for 1 hr by FRET based LANCE Ultra KinaSelect screen assay; format: protein-complex assay
[4] = molecular target: T4, Cyclin-dependent kinase 7 (Homo sapiens, UniProt P50613); test: Inhibition of CDK7 (unknown origin) assessed as substrate phosphorylation using ULight MBP peptide as substrate in presence of ATP incubated for 1 hr by FRET based LANCE Ultra KinaSelect screen assay
[5] = molecular target: Cyclin-dependent kinase 1/cyclin B1 (Homo sapiens, UniProt P06493); test: Inhibition of CDK1/cyclin B1 (unknown origin) assessed as substrate phosphorylation using ULight MBP peptide as substrate in presence of ATP incubated for 1 hr by FRET based LANCE Ultra KinaSelect screen assay; format: protein-complex assay
[6] = molecular target: T5, Cyclin-dependent kinase 6 (Homo sapiens, UniProt Q00534); test: Inhibition of CDK6 (unknown origin) assessed as substrate phosphorylation using ULight MBP peptide as substrate in presence of ATP incubated for 1 hr by FRET based LANCE Ultra KinaSelect screen assay
[7] = molecular target: T6, Cyclin-dependent kinase 4/cyclin D1 (Homo sapiens, UniProt P11802); test: Inhibition of CDK4/cyclin D1 (unknown origin) assessed as substrate phosphorylation using ULight MBP peptide as substrate in presence of ATP incubated for 1 hr by FRET based LANCE Ultra KinaSelect screen assay; format: protein-complex assay
[8] = molecular target: T6, Cyclin-dependent kinase 4/cyclin D1; test: Inhibition of human CDK4/Cyclin D1 assessed as substrate phosphorylation at ser780 using GST tagged retinoblastoma as substrate in presence of gamma32P-ATP by scintillation counter analysis; format: protein-complex assay
CDK6/cyclin D3 = CDK6/cyclin D3 (Homo sapiens, UniProt Q00534); test: Inhibition of human CDK6/Cyclin D3 in presence of gamma32P-ATP by scintillation counter analysis; format: protein-complex assay
[9] = molecular target: T7, Cyclin-dependent kinase 1/cyclin B (Homo sapiens, UniProt P06493); test: Inhibition of human CDK1/Cyclin B in presence of gamma32P-ATP by scintillation counter analysis; format: protein-complex assay
[10] = molecular target: T3, Cyclin-dependent kinase 2/cyclin A; test: Inhibition of human CDK2/Cyclin A in presence of gamma32P-ATP by scintillation counter analysis; format: protein-complex assay
[11] = molecular target: T8, Protein cereblon/Cyclin-dependent kinase 9 (Homo sapiens, UniProt P50750+Q96SW2); test: Protac activity at CRBN/CDK9 in human MOLT-4 cells assessed as degradation of CDK9 measured after 6 hrs by western blot analysis; format: cell-based
[12] = Inhibition of CDK7/Cyclin H/MAT1 (unknown origin); parameters: species or system Homo sapiens
[13] = molecular target: Cyclin-dependent kinase 5/CDK5 activator 1 (Homo sapiens, UniProt Q00535); test: Inhibition of CDK5/p35 (unknown origin); format: protein-complex assay
[14] = Inhibition of CDK4/Cyclin D (unknown origin); parameters: species or system Homo sapiens
[15] = Inhibition of CDK3/Cyclin E (unknown origin); parameters: species or system Homo sapiens
[16] = Inhibition of CDK6/Cyclin D3 (unknown origin); parameters: species or system Homo sapiens
[17] = molecular target: T7, Cyclin-dependent kinase 1/cyclin B; test: Inhibition of CDK1/Cyclin B (unknown origin); format: protein-complex assay
[18] = molecular target: T2, Cyclin-dependent kinase 9; test: Inhibition of CDK9 (unknown origin) using TMB as substrate by ELISA
[19] = molecular target: T9, Cyclin-dependent kinase 14 (Homo sapiens, UniProt O94921); test: Inhibition of CDK14 (unknown origin) by Kinomescan method
[20] = molecular target: T1, Cyclin-dependent kinase 2; test: Inhibition of CDK2 (unknown origin) by Kinomescan method
[21] = molecular target: Dual specificity tyrosine-phosphorylation-regulated kinase 1B (Homo sapiens, UniProt Q9Y463); test: Inhibition of DYRK1B (unknown origin) by Kinomescan method
[22] = molecular target: T10, Cyclin-dependent kinase 8 (Homo sapiens, UniProt P49336); test: Inhibition of CDK8 (unknown origin) by Kinomescan method
[23] = molecular target: T2, Cyclin-dependent kinase 9; test: Inhibition of CDK9 (unknown origin) by Kinomescan method
[24] = molecular target: T11, Cyclin-dependent kinase 1 (Homo sapiens, UniProt P06493); test: Inhibition of CDK1 (unknown origin) by Kinomescan method
[25] = molecular target: T4, Cyclin-dependent kinase 7
[26] = molecular target: T12, Cyclin-dependent kinase 16 (Homo sapiens, UniProt Q00536); test: Inhibition of CDK16 (unknown origin) by Kinomescan method
[27] = molecular target: T13, Cyclin-dependent kinase 18 (Homo sapiens, UniProt Q07002); test: Inhibition of CDK18 (unknown origin) by Kinomescan method
[28] = molecular target: T2, Cyclin-dependent kinase 9; test: Inhibition of CDK9 (unknown origin) at 1 uM by Kinomescan method
[29] = molecular target: T14, Cyclin-dependent kinase 17 (Homo sapiens, UniProt Q00537); test: Inhibition of CDK17 (unknown origin) by Kinomescan method
[30] = molecular target: T15, Cyclin-dependent kinase 5 (Homo sapiens, UniProt Q00535); test: Inhibition of CDK5 (unknown origin) by Kinomescan method
[31] = molecular target: T16, Cyclin-dependent kinase 4 (Homo sapiens, UniProt P11802); test: Inhibition of CDK4 (unknown origin) incubated for 120 mins in presence of ATP by HotSpot kinase assay
[32] = molecular target: T13, Cyclin-dependent kinase 18
[33] = molecular target: Cyclin-dependent kinase 19 (Homo sapiens, UniProt Q9BWU1); test: Inhibition of CDK19 (unknown origin) incubated for 120 mins in presence of ATP by HotSpot kinase assay
[34] = molecular target: T15, Cyclin-dependent kinase 5; test: Inhibition of CDK5 (unknown origin) incubated for 120 mins in presence of ATP by HotSpot kinase assay
[35] = molecular target: Cyclin-dependent kinase 3 (Homo sapiens, UniProt Q00526); test: Inhibition of CDK3 (unknown origin) incubated for 120 mins in presence of ATP by HotSpot kinase assay
[36] = molecular target: T1, Cyclin-dependent kinase 2; test: Inhibition of CDK2 (unknown origin) incubated for 120 mins in presence of ATP by HotSpot kinase assay
[37] = molecular target: Cyclin-dependent kinase 12 (Homo sapiens, UniProt Q9NYV4)
[38] = molecular target: T12, Cyclin-dependent kinase 16; test: Inhibition of CDK16 (unknown origin) incubated for 120 mins in presence of ATP by HotSpot kinase assay
[39] = molecular target: T5, Cyclin-dependent kinase 6; test: Inhibition of CDK6 (unknown origin) incubated for 120 mins in presence of ATP by HotSpot kinase assay
[40] = molecular target: T10, Cyclin-dependent kinase 8; test: Inhibition of CDK8 (unknown origin) incubated for 120 mins in presence of ATP by HotSpot kinase assay
[41] = molecular target: Cyclin-dependent kinase 13 (Homo sapiens, UniProt Q14004)
[42] = molecular target: T9, Cyclin-dependent kinase 14; test: Inhibition of CDK14 (unknown origin) incubated for 120 mins in presence of ATP by HotSpot kinase assay
[43] = molecular target: T14, Cyclin-dependent kinase 17; test: Inhibition of CDK17 (unknown origin) incubated for 120 mins in presence of ATP by HotSpot kinase assay
CDK9/Cyclin K = CDK9/Cyclin K (Homo sapiens, UniProt P50750); test: Inhibition of CDK9/Cyclin K (unknown origin) by LanthaScreen binding assay; format: protein-complex assay
[44] = molecular target: Cyclin-C/Cyclin-dependent kinase 19 (Homo sapiens, UniProt Q9BWU1); test: Inhibition of CDK19/Cyclin C (unknown origin) by LanthaScreen binding assay; format: protein-complex assay
CDK8/Cyclin C = CDK8/Cyclin C (Homo sapiens, UniProt P49336); test: Inhibition of CDK8/Cyclin C (unknown origin) by LanthaScreen binding assay; format: protein-complex assay
CDK9/cyclin T1 = CDK9/cyclin T1 (Homo sapiens, UniProt P50750); test: Inhibition of human CDK9/cyclin T1 in presence of ATP; format: protein-complex assay
CDK4/Cyclin D3 = CDK4/Cyclin D3 (Homo sapiens, UniProt P11802); test: Inhibition of human CDK4/Cyclin D3 in presence of ATP; format: protein-complex assay
[45] = molecular target: T11, Cyclin-dependent kinase 1; test: Inhibition of CDK1 (unknown origin) by LANCE ULight TR-FRET assay
[46] = molecular target: T16, Cyclin-dependent kinase 4; test: Inhibition of CDK4 (unknown origin) by LANCE ULight TR-FRET assay
[47] = molecular target: T4, Cyclin-dependent kinase 7; test: Inhibition of CDK7 (unknown origin) by LANCE ULight TR-FRET assay
[48] = molecular target: T10, Cyclin-dependent kinase 8; test: Inhibition of CDK8 (unknown origin) by LANCE ULight TR-FRET assay
[49] = molecular target: T1, Cyclin-dependent kinase 2; test: Inhibition of CDK2 (unknown origin) by LANCE ULight TR-FRET assay
[50] = molecular target: T10, Cyclin-dependent kinase 8; test: Inhibition of CDK8 (unknown origin)
[51] = molecular target: T5, Cyclin-dependent kinase 6; test: Inhibition of CDK6 (unknown origin)
[52] = molecular target: T15, Cyclin-dependent kinase 5; test: Inhibition of CDK5 (unknown origin)
[53] = molecular target: T3, Cyclin-dependent kinase 2/cyclin A; test: Inhibition of CDK2/cyclin A (unknown origin) using GST-CTD and gamma-32P-ATP as substrate incubated for 5 min by […]; format: protein-complex assay
[54] = molecular target: T16, Cyclin-dependent kinase 4; test: Inhibition of CDK4 (unknown origin)
[55] = molecular target: T8, Protein cereblon/Cyclin-dependent kinase 9; test: Protac activity at CRBN/CDK9 in human MCF7 cells assessed as degradation of CDK9 measured after 24 hrs by western blot analysis; format: cell-based

T4 sequence (P50613 whole entry): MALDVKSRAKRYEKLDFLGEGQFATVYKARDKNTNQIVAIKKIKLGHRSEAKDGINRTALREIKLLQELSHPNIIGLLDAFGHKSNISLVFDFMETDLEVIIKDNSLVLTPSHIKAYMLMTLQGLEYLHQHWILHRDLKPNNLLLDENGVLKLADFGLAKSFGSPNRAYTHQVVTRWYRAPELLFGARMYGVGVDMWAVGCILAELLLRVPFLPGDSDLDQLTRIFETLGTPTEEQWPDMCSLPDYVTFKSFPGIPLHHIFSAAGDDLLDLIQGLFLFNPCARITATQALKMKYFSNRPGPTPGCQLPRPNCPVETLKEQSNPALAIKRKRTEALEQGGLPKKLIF
T15 sequence (Q00535 whole entry): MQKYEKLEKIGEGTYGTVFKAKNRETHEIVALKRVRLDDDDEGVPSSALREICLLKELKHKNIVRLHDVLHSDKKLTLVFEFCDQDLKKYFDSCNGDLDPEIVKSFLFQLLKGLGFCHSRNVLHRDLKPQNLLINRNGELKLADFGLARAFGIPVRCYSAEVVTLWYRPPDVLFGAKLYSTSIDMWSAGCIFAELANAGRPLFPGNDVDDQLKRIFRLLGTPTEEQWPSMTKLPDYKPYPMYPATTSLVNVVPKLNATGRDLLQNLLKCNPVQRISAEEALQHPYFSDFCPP
T5 sequence (Q00534 whole entry): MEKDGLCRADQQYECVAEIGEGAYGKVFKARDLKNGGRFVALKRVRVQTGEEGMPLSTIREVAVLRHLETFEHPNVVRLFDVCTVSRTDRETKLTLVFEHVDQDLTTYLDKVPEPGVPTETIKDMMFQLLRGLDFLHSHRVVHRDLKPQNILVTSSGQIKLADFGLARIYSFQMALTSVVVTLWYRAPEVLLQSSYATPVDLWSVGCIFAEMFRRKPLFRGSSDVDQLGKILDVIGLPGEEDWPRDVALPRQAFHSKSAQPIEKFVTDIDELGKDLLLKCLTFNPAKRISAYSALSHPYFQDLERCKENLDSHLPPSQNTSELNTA
T10 sequence (P49336 whole entry): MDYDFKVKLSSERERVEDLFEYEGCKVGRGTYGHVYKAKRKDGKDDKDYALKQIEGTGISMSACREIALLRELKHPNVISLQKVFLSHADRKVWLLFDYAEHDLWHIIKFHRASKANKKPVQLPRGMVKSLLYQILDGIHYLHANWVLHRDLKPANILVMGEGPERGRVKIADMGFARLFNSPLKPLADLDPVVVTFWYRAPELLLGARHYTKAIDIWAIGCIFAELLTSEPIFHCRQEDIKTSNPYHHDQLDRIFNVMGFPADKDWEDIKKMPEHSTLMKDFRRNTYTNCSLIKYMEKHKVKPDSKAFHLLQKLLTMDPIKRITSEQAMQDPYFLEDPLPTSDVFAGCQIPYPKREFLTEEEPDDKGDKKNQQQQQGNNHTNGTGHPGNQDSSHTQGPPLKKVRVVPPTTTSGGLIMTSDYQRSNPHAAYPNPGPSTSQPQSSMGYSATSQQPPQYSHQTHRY
T2 sequence (P50750 whole entry): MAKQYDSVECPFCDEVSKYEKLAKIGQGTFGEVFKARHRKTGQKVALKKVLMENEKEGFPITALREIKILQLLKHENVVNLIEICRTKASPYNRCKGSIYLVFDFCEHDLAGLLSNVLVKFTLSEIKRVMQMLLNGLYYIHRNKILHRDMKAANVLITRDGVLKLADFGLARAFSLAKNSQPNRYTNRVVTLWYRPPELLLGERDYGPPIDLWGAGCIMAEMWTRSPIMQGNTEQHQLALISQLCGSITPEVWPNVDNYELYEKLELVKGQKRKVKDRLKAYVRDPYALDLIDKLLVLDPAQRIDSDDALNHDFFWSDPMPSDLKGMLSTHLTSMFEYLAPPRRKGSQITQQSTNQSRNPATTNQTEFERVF
T16 sequence (P11802 whole entry): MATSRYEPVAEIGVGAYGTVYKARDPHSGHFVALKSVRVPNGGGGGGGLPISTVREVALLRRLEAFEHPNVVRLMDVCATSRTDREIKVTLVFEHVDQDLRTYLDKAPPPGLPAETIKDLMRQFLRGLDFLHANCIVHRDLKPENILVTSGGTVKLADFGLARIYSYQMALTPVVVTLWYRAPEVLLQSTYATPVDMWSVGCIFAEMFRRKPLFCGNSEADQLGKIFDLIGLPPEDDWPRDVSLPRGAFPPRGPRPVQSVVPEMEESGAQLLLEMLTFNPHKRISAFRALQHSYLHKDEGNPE
T9 sequence (O94921 whole entry): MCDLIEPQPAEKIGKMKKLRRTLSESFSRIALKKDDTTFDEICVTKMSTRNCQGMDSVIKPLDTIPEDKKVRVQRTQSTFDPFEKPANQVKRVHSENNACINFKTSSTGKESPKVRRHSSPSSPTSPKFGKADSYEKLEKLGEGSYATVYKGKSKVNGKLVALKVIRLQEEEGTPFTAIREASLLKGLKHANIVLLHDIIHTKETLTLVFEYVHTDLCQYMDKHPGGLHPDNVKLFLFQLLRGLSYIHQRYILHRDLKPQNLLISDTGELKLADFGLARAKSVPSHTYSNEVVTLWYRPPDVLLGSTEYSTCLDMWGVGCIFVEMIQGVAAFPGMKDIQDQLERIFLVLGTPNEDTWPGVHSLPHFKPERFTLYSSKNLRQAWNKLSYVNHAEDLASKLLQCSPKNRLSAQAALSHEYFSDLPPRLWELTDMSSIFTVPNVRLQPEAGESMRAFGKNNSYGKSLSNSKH
Cyclin-dependent kinase 5/CDK5 activator 1, sequence (Q00535 whole entry): as the sequence (Q00535 whole entry) above
Cyclin-dependent kinase 5/CDK5 activator 1, sequence (Q15078 whole entry, further chain): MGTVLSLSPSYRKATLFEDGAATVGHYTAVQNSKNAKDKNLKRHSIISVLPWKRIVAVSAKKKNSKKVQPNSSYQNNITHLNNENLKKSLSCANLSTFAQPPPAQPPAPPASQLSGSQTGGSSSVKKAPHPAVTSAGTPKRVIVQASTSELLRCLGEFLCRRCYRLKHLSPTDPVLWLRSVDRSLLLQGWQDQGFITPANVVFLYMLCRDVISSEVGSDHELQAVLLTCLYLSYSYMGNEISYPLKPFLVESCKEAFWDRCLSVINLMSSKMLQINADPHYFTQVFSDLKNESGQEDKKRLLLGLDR
T12 sequence (Q00536 whole entry): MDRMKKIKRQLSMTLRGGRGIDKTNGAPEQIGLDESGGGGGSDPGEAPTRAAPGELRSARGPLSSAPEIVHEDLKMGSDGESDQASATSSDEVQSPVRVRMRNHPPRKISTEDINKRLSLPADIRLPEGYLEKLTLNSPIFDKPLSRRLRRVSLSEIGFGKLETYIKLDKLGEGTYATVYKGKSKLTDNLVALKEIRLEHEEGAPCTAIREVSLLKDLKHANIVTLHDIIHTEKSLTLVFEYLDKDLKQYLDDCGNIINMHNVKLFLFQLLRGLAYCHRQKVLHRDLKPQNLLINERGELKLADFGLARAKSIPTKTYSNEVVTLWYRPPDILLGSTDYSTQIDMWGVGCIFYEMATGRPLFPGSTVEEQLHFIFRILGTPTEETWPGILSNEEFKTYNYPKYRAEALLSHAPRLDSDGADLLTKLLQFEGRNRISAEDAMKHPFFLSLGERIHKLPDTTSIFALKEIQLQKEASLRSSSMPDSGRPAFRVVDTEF
T14 sequence (Q00537 whole entry): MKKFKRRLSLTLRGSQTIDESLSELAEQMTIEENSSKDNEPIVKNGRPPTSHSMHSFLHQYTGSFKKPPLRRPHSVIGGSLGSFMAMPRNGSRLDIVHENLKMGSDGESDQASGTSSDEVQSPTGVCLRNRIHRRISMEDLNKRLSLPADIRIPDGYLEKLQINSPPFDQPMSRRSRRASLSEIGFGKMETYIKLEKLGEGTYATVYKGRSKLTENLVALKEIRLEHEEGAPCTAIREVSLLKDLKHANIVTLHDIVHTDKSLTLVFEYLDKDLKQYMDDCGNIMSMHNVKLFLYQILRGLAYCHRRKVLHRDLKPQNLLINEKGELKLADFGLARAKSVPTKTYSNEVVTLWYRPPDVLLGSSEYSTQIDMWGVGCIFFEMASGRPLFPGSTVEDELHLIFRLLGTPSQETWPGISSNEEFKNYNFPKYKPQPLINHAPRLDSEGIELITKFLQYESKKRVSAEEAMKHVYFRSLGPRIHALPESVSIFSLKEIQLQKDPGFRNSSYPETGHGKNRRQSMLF
T13 sequence (Q07002 whole entry): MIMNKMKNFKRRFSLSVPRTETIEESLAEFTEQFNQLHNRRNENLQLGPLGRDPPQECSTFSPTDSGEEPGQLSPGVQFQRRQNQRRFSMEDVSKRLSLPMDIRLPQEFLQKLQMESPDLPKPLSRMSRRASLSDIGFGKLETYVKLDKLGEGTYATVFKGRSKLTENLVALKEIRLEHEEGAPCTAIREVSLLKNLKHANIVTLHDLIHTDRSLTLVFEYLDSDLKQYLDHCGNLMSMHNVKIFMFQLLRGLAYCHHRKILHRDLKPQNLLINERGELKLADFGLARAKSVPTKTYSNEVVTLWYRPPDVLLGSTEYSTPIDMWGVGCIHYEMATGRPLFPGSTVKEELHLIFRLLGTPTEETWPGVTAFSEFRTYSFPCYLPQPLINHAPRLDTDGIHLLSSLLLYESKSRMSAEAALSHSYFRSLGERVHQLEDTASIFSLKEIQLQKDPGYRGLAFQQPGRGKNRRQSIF

pIC50 [1]: 5.93
pIC50 [2]: 7.52
SMILES: COc1cc(O)c2c(=O)cc(-c3ccc(N4CCN(C)CC4)cc3)oc2c1N1CCNCC1

pIC50 [3]: 5.61
pIC50 [4]: < 5.00
pIC50 [5]: 5.26
pIC50 [6]: < 5.00
pIC50 [7]: 5.03
SMILES: COc1ccccc1-c1cc(Nc2cccc(CS(N)(=O)=O)c2)ncn1

pIC50 [8]: 7.20
pIC50 (CDK6/cyclin D3): 6.40
pIC50 [9]: 7.10
pIC50 [10]: 6.65
SMILES: CN1CCC(c2c(O)cc(O)c3c(=O)cc(-c4ccccc4Cl)oc23)C1CO (configuration not stated) [RIVICICLIB]

DC50 [11]: < 250 nM
SMILES: CC(C)(C)c1cnc(CSc2cnc(NC(=O)C3CCN(CC(=O)NCCOCCOCCOCCNc4cccc5c4C(=O)N(C4CCC(=O)NC4=O)C5=O)CC3)s2)o1 (configuration not stated)

pIC50 [12]: 6.26
pIC50 [13]: 6.80
pIC50 [14]: 6.95
pIC50 [15]: 6.40
pIC50 [16]: 6.15
pIC50 [17]: 6.86
SMILES: Nc1nc(N[C@H]2CC3CCC2C3)sc1C(=O)c1ccccc1[N+](=O)[O-] (some centres not stated)

pIC50 [18]: 6.30
SMILES: O=C1N=NC(=O)/C(=C/Nc2ccc(-c3nc4ncccc4[nH]3)cc2)C(=O)N1

pIC50 [19]: 5.46
pIC50 [20]: 6.15
pIC50 [21]: 6.46
pIC50 [22]: < 5.00
pIC50 [23]: > 9.29
pIC50 [24]: 6.23
pIC50 [25]: < 5.00
pIC50 [26]: 6.22
pIC50 [27]: 5.31
inhibition [28]: 99%
pIC50 [29]: 5.82
pIC50 [30]: 5.98
SMILES: COC[C@@H](C)N[C@H]1CC[C@H](Nc2cc(-c3cccc(NCC4(C#N)CCOCC4)n3)c(Cl)cn2)CC1

pIC50 [31]: < 5.92
pIC50 [32]: < 5.92
pIC50 [33]: < 5.92
pIC50 [34]: < 5.92
pIC50 [35]: < 5.92
pIC50 [36]: 4.74
pIC50 [37]: 5.21
pIC50 [38]: < 5.92
pIC50 [39]: < 5.92
pIC50 [40]: < 5.92
pIC50 [41]: 5.34
pIC50 [42]: < 5.92
pIC50 [43]: < 5.92
SMILES: CCCc1cc(N[C@@H]2CC[C@@H](N)C2)n2nccc2n1

pIC50 (CDK9/Cyclin K): 7.70
pIC50 [44]: 8.57
pIC50 (CDK8/Cyclin C): 8.96
SMILES: CC(C)c1ccc(Nc2nccc(-c3cnn4ncccc34)n2)cc1 [GW805758X]

pIC50 (CDK9/cyclin T1): 8.15
pIC50 (CDK4/Cyclin D3): 8.60
SMILES: CN(C)CCNC(=O)c1ccc(Nc2ncc3cc(C(=O)N(C)C)n(C4CCCC4)c3n2)c(F)c1

SMILES: COc1ccc(F)cc1-c1c(F)cnc2[nH]c(C3=CCN([C@H]4CC[C@H](C(=O)O)CC4)CC3)cc12
pIC50 [45]: 6.46
pIC50 [46]: 7.79
pIC50 [47]: 4.84
pIC50 [48]: 5.79
pIC50 [49]: 6.48

pIC50 [50]: 7.92
pIC50 [1]: 6.74
pIC50 [51]: 6.68
pIC50 [52]: 6.68
SMILES: CN1CC[C@@H](c2c(O)cc(O)c3c(=O)cc(-c4ccc(C(F)(F)F)cc4Cl)oc23)[C@@H]1CO [VORUCICLIB]

pIC50 [53]: 5.46
SMILES: Nc1n[nH]c(N)c1/N=N/c1ccc(O)cc1

pIC50 [54]: 4.52
SMILES: Fc1ccc(N2CCCCC2)c(NC(=S)c2ccncc2)c1

DC50 [55]: 10000 nM
SMILES: O=C1CCC(N2C(=O)c3cccc(NC(=O)CCCCCn4cc(Oc5c(O)cc(O)c6c(=O)cc(-c7ccccc7)oc56)nn4)c3C2=O)C(=O)N1 (configuration not stated)

pIC50 [13]: 8.30
SMILES: COCCN1CCN(Cc2ccc(-c3n[nH]c4c3C(=O)c3c(NC(=O)NN5CCOCC5)cccc3-4)cc2)CC1 [RGB-286638]
